Entries after “also recorded” stand apart in the source; their conditions may differ.
Experiments:
[1] = tested on: other protein arginine methyltransferase family members; experiment: HotSpot radioisotope-based methyltransferase platform (Reaction Biology Corp); format: biochemical; details: did not inhibit or at least this fold higher IC50
[2] = tested on: NF-κB target genes (TNFα and IL8); experiment: qPCR of NF-κB target genes in PANC1 cells; format: cell-based; details: treated vs untreated
Protocol: (§1) Furthermore, experiments were performed to determine if PRMT5 inhibition by compound (IIa) could decrease the expression of NF-κB target genes (e.g., pro-inflammatory cytokines TNFα and IL-8). Briefly, HT29 and PANC1 cells were treated with or without compound (IIa), and target gene expression was analyzed by quantitative PCR.

[3] = tested on: NF-κB target genes (TNFα and IL8); experiment: qPCR of NF-κB target genes in HT29 cells; format: cell-based; details: treated vs untreated
Protocol: as §1

NF-κB [4] = experiment: NF-κB luciferase assay in PANC1 cells; format: cell-based; details: increasing concentrations
Source text: (§2) Previously, it was discovered that PRMT5 activates NF-κB through methylation of its p65 subunit in HEK293 cells (Wei et al., Proc Natl Acad Sci USA, 2013; 110: 13516-13521; Wei et al., Cell Cycle, 2013; 13: 32-41). As shown in FIGS. 11A and 11B, overexpression of PRMT5 enhances NF-κB activity, while PRMT5 knockdown causes the opposite effect in both PANC1 (FIG. 11A) and HT-29 (FIG. 11B) cells. To determine if compound (IIa) decreases NF-κB activity, cells transfected with a NF-κB luciferase construct were treated with increasing concentrations of compound (IIa) or the control compound EPZ015666.

[5] = tested on: PDAC cells (PANC1, MiaPaCa2 and AsPC1); experiment: MTT cell viability assay in PDAC cell lines; format: cell-based
Protocol: (§3) The PRMT5 inhibitory activity of the compounds from the screen was confirmed using both AlphaLISA and an MTT [(3-(4,5-dimethylthiazolyl-2)-2,5-diphenyltetrazolium bromide)] assay (PerkinElmer, Waltham, MA). For the MTT assay, cells were seeded at 90% confluence in 96-well plates and titrated with different dosages of compound (IIa) for 4 days. Media was then removed and 100 μl of MTT (Sigma-Aldrich, St. Louis, MO) was added per well. Cells were incubated for 2 hours at 37° C. before adding 100 μl of DMSO to each well and quantified with the SYNERGY™ H1 Multi-Mode Reader (BioTek Instruments Inc., Winooski, VT). The expression of PRMT5 was examined in pancreatic ductal adenocarcinoma cells at multiple stages of disease progression and in multiple colorectal cancer cell lines. Pancreatic control (HPNE) and cancer cell lines (PANC1, MiaPaCa2 and AsPC1) were grown in Dulbecco's Modified Eagle Medium (DMEM) (GE Healthcare, Little Chalfont, UK), supplemented with 1% of penicillin/streptomycin, 10% fetal bovine serum (FBS). Colon control (FHC) and cancer (HT29, HCT116, and DLD1) cell lines were maintained in RPMI 1640 Medium (Roswell Park Memorial Institute Medium) (GE Healthcare, Little Chalfont, UK), containing 1% penicillin/streptomycin and 10% FBS, while FHC cells were cultured under the same condition with further addition of 25 mM HEPES (4-(2-hydroxyethyl)-1-piperazineethanesulfonic acid), 10 ng/ml cholera toxin, 0.005 mg/ml insulin, 0.005 mg/ml transferring, and 100 ng/ml hydrocortisone. All cell lines were cultured at 37° C. under 5% CO2. The PDAC and CRC cell lines described above were treated with increasing concentrations of compound (IIa) or the commercially available PRMT5 inhibitor EPZ015666 [drawing 12] and quantified for cell viability using the MTT assay described above. […] A soft agar experiment was also performed to determine the effect of compound (IIa) on colony growth.

[6] = tested on: PRMT5-mediated p65 methylation; experiment: Co-immunoprecipitation-Western blot of p65 dimethylation in 293-WT-p65-Flag cells; format: cell-based; details: 20 μM for 24 hours, compared to untreated control
Source text: FIGS. 2A-D depict the experimental results of studies to determine the PRMT5 inhibitory activity of a compound of formula (II), a compound of formula (III), and a compound of formula (IV). […] Flag beads were used to pull down WT-p65-Flag and samples were then probed with anti-symmetric dimethyl arginine motif Ab (sdme-RG Ab) to detect dimethylation levels of the p65 subunit.
Amongst the hits, the leading compounds were a compound of formula (II), specifically compound (IIa), a compound of formula (III), specifically compound (IIIa), and a compound of formula (IV), specifically compound (Iva). […] To determine whether compound (IIa) reduced p65 methylation of NF-κB, Flag-p65 expressing cells were treated with 20 μM compound (IIa) for 24 hours, Flag-p65 was then pulled down with anti-Flag-M2 beads and analyzed with Western blot by probing with anti-dimethylated arginine (FIG. 2B).

PANC1 cells = experiment: Anchorage-independent (soft agar) growth assay in PANC1 cells; format: cell-based; details: increasing concentrations
Protocol: The ability to form colonies suspended in soft agar is a characteristic of cancer cells. By using the stable cell lines established above, an anchorage-independent assay in soft agar was conducted. 2.5% and 1.25% agar were used to prepare the bottom and top layers of the soft agar, respectively. The bottom agar was added to each well of a 6-well plate. 2×10^5 cells for each cell line were then added and mixed into top agar solution and layered on top of the bottom layer. The plates were incubated for 10-20 days at 37° C. and 5% CO2. Images were captured using a Canon EOS Rebel T3i Digital SLR camera (Canon, Woodridge, IL) and quantification of colony size and number was performed using ImageJ. […] A soft agar experiment was also performed to determine the effect of compound (IIa) on colony growth.

[7] = tested on: CRC cells (HT29, HCT116 and DLD1); experiment: MTT cell viability assay in CRC cell lines; format: cell-based
Protocol: as §3

NF-κB [8] = experiment: NF-κB luciferase assay in HT29 cells; format: cell-based; details: increasing concentrations
Source text: as §2

fold higher IC50 against other protein arginine methyltransferase family members [1]: ≥ 10 fold
IC50 ([5]; range over PANC1, MiaPaCa2 and AsPC1): 2 to 4 µM
IC50 ([7]; range over HT29, HCT116 and DLD1): 10 to 11 µM
SMILES: Cc1ccc(Nc2nc(NCCN(C)C)nc3c2cnn3-c2ccccc2)cc1C [compound (IIa)]
IL8 expression (qPCR), PANC1 [2]: significant decrease; also recorded: dramatically decreased
TNFα expression (qPCR), PANC1 [2]: significant decrease; also recorded: dramatically decreased
IL8 expression (qPCR), HT29 [3]: significant decrease; also recorded: dramatically decreased
TNFα expression (qPCR), HT29 [3]: significant decrease; also recorded: dramatically decreased
NF-κB activation (luciferase), PANC1 (NF-κB [4]): corresponding decrease in NF-κB activation
cell viability in PDAC cells (PANC1, MiaPaCa2, AsPC1), MTT ([5]; increasing concentrations): decreased significantly
methylation of PRMT5 substrate p65 [6]: significantly inhibited PRMT5-mediated p65 methylation; also recorded: inhibited the methylation of PRMT5 substrate, p65
anchorage-independent growth / colony formation, PANC1 (PDAC) (PANC1 cells): strongly inhibited colony formation; also recorded: significant decrease
cell viability in CRC cells (HT29, HCT116, DLD1), MTT ([7]; increasing concentrations): decreased significantly
NF-κB activation (luciferase), HT29 (NF-κB [8]): corresponding decrease in NF-κB activation

Source: US12516052B2, “Methyltransferase 5 (PRMT5) inhibitors and methods of treatment” (THE TRUSTEES OF INDIANA UNIVERSITY, priority 2016, dated 2026)
